Experimental findings from patent US12655126B2, “Imidazole-pyrazole derivatives as antibacterials” (Hoffmann-La Roche Inc., priority 2020, dated 2026) are described below.

Where a name gives a salt, the structure may show the parent alone.

For one experiment, the system named is Acinetobacter baumannii ATCC17961. As to the kind of experiment: Antimicrobial susceptibility testing: 90% growth inhibitory concentration (IC90) determination. In kind it is cell-based. Particulars: Acinetobacter baumannii ATCC17961; Iso-Sensitest broth; growth by OD 600 nm over 16 h; 90% growth inhibitory concentration; read-out: ATCC 17961 IC90. How it is done: Antimicrobial Susceptibility Testing:
90% Growth Inhibitory Concentration (IC90) Determination
The in vitro antimicrobial activity of the compounds was determined according to the following procedure:
The assay used a 10-points Iso-Sensitest broth medium to measure quantitatively the in vitro activity of the compounds against Acinetobacter baumannii ATCC17961.
Stock compounds in DMSO were serially twofold diluted (e.g. range from 50 to 0.097 μM final concentration) in 384 wells microtiter plates and inoculated with 49 μl the bacterial suspension in Iso-Sensitest medium to have a final cell concentration of ˜5×10^(5) CFU/ml in a final volume/well of 50 ul/well. Microtiter plates were incubated at 35±2° C.
Bacterial cell growth was determined with the measurement of optical density at λ=600 nm each minutes over a time course of 16 h. Growth inhibition was calculated during the logarithmic growth of the bacterial cells with determination of the concentration inhibiting 50% (IC50) and 90% (IC90) of the growth.
Table 1 provides the 90% growth inhibitory concentrations (IC90) in micromoles per liter of the compounds of present invention obtained against the strain Acinetobacter baumannii ATCC17961.
In the case of `Cc1nc(-n2cc(-c3cnc(C(=O)Nc4ccc(C(=O)N5CCN(C(=O)C6CC[N+](C)(C)CC6)CC5)c(Cl)c4)n3C)c(C(F)(F)F)n2)ccc1N` [Example A11, 5-[1-(5-amino-6-methyl-2-pyridyl)-3-(trifluoromethyl)pyrazol-4-yl]-N-[3-chloro-4-[4-(1,1-dimethylpiperidin-1-ium-4-carbonyl)piperazine-1-carbonyl]phenyl]-1-methyl-imidazole-2-carboxamide], the IC90 was found to be 230 nM.
As to `Cn1c(-c2cn(-c3ccc(N)cn3)nc2C(F)(F)F)cnc1C(=O)Nc1ccc(C(=O)N2CCN(C(=O)C3(O)CC[N+](C)(C)CC3)CC2)c(Cl)c1` [Example D10, 5-[1-(5-amino-2-pyridyl)-3-(trifluoromethyl)pyrazol-4-yl]-N-[3-chloro-4-[4-(4-hydroxy-1,1-dimethyl-piperidin-1-ium-4-carbonyl)piperazine-1-carbonyl]phenyl]-1-methyl-imidazole-2-carboxamide; formate], the concentration for an effect of 90% (IC90) worked out at 330 nM.
Consider `Cn1c(-c2cn(-c3ccc(N)cn3)nc2C#N)cnc1C(=O)Nc1ccc(C(=O)N2CCN(C(=O)C3CC[N+](C)(C)CC3)CC2)c(Cl)c1` [Example J2, 5-[1-(5-amino-2-pyridyl)-3-cyano-pyrazol-4-yl]-N-[3-chloro-4-[4-(1,1-dimethylpiperidin-1-ium-4-carbonyl)piperazine-1-carbonyl]phenyl]-1-methyl-imidazole-2-carboxamide; 2,2,2-trifluoroacetate], for which the IC90 came to 9830 nM.
The same measure, in the same setting: to `Cn1c(-c2cn(-c3ccc(N)cn3)nc2C(F)(F)F)cnc1C(=O)Nc1ccc(C(=O)N2CCN(C(=O)[C@@H]3[C@@H](Oc4ccc(N)cn4)CC[N+]3(C)C)CC2)c(Cl)c1` [Example D14, N-[4-[4-[(2S,3S)-3-[(5-amino-2-pyridyl)oxy]-1,1-dimethyl-pyrrolidin-1-ium-2-carbonyl]piperazine-1-carbonyl]-3-chloro-phenyl]-5-[1-(5-amino-2-pyridyl)-3-(trifluoromethyl)pyrazol-4-yl]-1-methyl-imidazole-2-carboxamide; formate] belongs 550 nM.
Consider `Cn1c(-c2cn(-c3ccc(N)cn3)nc2C(F)(F)F)cnc1C(=O)Nc1ccc(C(=O)N2CCC(C(=O)N3CC[N+](C)(C)CC3)CC2)c(Cl)c1` [Example H1, 5-[1-(5-Amino-2-pyridyl)-3-(trifluoromethyl)pyrazol-4-yl]-N-[3-chloro-4-[4-(4,4-dimethylpiperazin-4-ium-1-carbonyl)piperidine-1-carbonyl]phenyl]-1-methyl-imidazole-2-carboxamide; formate], for which the concentration for an effect of 90% (IC90) was determined as 610 nM.
On the same count and under the same terms, the figure for `Cn1c(-c2cn(-c3ccc(N)cn3)nc2C(F)(F)F)cnc1C(=O)Nc1ccc(C(=O)NCC2CCN(C(=O)C3CC[N+](C)(C)CC3)CC2)c(Cl)c1` [Example D12, 5-[1-(5-amino-2-pyridyl)-3-(trifluoromethyl)pyrazol-4-yl]-N-[3-chloro-4-[[1-(1,1-dimethylpiperidin-1-ium-4-carbonyl)-4-piperidyl]methylcarbamoyl]phenyl]-1-methyl-imidazole-2-carboxamide; formate] is 1300 nM.

Still in this experiment, the particulars now being: Acinetobacter baumannii, ATCC17961, 16 h, read-out: ATCC 17961 IC90.
For `Cn1c(-c2cn(-c3ncccn3)nc2C(F)(F)F)cnc1C(=O)Nc1ccc(C(=O)N2CCN(C(=O)C3CC[N+](C)(C)CC3)CC2)c(Cl)c1` [Example B1, N-[3-Chloro-4-[4-(1,1-dimethylpiperidin-1-ium-4-carbonyl)piperazine-1-carbonyl]phenyl]-1-methyl-5-[1-pyrimidin-2-yl-3-(trifluoromethyl)pyrazol-4-yl]imidazole-2-carboxamide; formate], the IC90 was determined as 940 nM.
Take `Cn1c(-c2cn(-c3ncccn3)nc2C(F)(F)F)cnc1C(=O)Nc1ccc(C(=O)N[C@H]2[C@@H]3CN(C(=O)[C@@H]4C[C@@H](O)C[N+]4(C)C)C[C@@H]32)c(Cl)c1` (racemic) [Example B8, rac-(2R,4S)-2-((1R,5S,6S)-6-(2-chloro-4-(1-methyl-5-(1-(pyrimidin-2-yl)-3-(trifluoromethyl)-1H-pyrazol-4-yl)-1H-imidazole-2-carboxamido)benzamido)-3-azabicyclo[3.1.0]hexane-3-carbonyl)-4-hydroxy-1,1-dimethylpyrrolidin-1-ium]: the concentration for an effect of 90% (IC90) was determined as 1500 nM.
